This passage reports MIC results from patent US4104306A, “12A-Deoxy chelocardin” (Abbott Laboratories, priority 1976, dated 1978).

Counter-ions that a name gives are not always drawn.

What all share (format): cell-based
Experiment [1] deals with Diplococcus pneumoniae 6301. As to the kind of experiment: tube dilution test. Particulars: Streptococcus pneumoniae, broth with 20% horse serum, read-out: minimum inhibitory concentration (MIC). The procedure: The antibacterial activity of the above material was tested in the usual fashion, using a two-fold, brain-heart infusion agar (BHI 10 ml/plate) dilution test with 12 different organisms. The following minimum inhibitory concentrations (MIC) were determined: | *tube dilution test; broth container with 20% horse serum

Experiment [2] has as its system Salmonella typhimurium Ed. #9. As to the kind of experiment: two-fold brain-heart infusion agar dilution test. The following applies: Salmonella enterica, BHI agar dilution, 10 ml/plate, read-out: minimum inhibitory concentration (MIC). As for the experimental part:
(§1) The antibacterial activity of the above material was tested in the usual fashion, using a two-fold, brain-heart infusion agar (BHI 10 ml/plate) dilution test with 12 different organisms. The following minimum inhibitory concentrations (MIC) were determined: […]
(In agar dilution the substance is mixed into plates at graded concentrations.)

The subject of experiment [3] is Klebsiella pneumoniae 8045. As to the kind of experiment: two-fold brain-heart infusion agar dilution test. The following applies: BHI agar dilution, 10 ml/plate, read-out: minimum inhibitory concentration (MIC). As for the experimental part: as §1
Experiment [4] has as its system Pasteurella multocida 10544. As to the kind of experiment: two-fold brain-heart infusion agar dilution test. The following applies: BHI agar dilution, 10 ml/plate, read-out: minimum inhibitory concentration (MIC). The procedure: as §1
In another experiment the test system is Proteus mirabilis Fin #9. As to the kind of experiment: two-fold brain-heart infusion agar dilution test. The following applies: BHI agar dilution, 10 ml/plate, read-out: minimum inhibitory concentration (MIC). As for the experimental part: as §1
Experiment [5] deals with Streptococcus pyrogenes C203. As to the kind of experiment: two-fold brain-heart infusion agar dilution test. Particulars: BHI agar dilution, 10 ml/plate, read-out: minimum inhibitory concentration (MIC). The procedure:
as §1

A further experiment has as its system Staph. aureus 45. As to the kind of experiment: two-fold brain-heart infusion agar dilution test. The following applies: Staphylococcus aureus, BHI agar dilution, 10 ml/plate, read-out: minimum inhibitory concentration (MIC). The procedure: as §1
The next experiment deals with Escherichia coli Juhl. As to the kind of experiment: two-fold brain-heart infusion agar dilution test. The following applies: BHI agar dilution, 10 ml/plate, read-out: minimum inhibitory concentration (MIC). The procedure:
as §1

A further experiment relates to Staph. aureus Smith. As to the kind of experiment: two-fold brain-heart infusion agar dilution test. Particulars: Staphylococcus aureus, BHI agar dilution, 10 ml/plate, read-out: minimum inhibitory concentration (MIC). As for the experimental part: as §1
A further experiment deals with Enterococcus 89. As to the kind of experiment: two-fold brain-heart infusion agar dilution test. The following applies: BHI agar dilution, 10 ml/plate, read-out: minimum inhibitory concentration (MIC). The procedure: as §1
Experiment [6] relates to Pseudomonas aeruginosa BMH #10. As to the kind of experiment: two-fold brain-heart infusion agar dilution test. The following applies: BHI agar dilution, 10 ml/plate, read-out: minimum inhibitory concentration (MIC). As for the experimental part: as §1
Experiment [7] deals with Proteus vulgaris Abbott JJ. As to the kind of experiment: two-fold brain-heart infusion agar dilution test. Particulars: BHI agar dilution, 10 ml/plate, read-out: minimum inhibitory concentration (MIC). The procedure:
as §1

Consider `CC(=O)C1=C(O)C(N)C2Cc3c(c(O)c4c(O)c(C)ccc4c3C)C(O)=C2C1=O` (stereo not drawn) [12a-deoxychelocardin hydrobromide], for which the MIC in experiment [1] came out at 25 µg/mL; in experiment [2], 6.2 µg/mL; in experiment [3], 6.2 µg/mL; in experiment [4], 0.39 µg/mL; in the experiment with Proteus mirabilis Fin #9, 6.2 µg/mL; in [5], 6.2 µg/mL. In addition, the MIC came out at 3.1 µg/mL with Staph. aureus 45; 25 µg/mL in the experiment with Escherichia coli Juhl; 3.1 µg/mL in the experiment on Staph. aureus Smith; 6.2 µg/mL with Enterococcus 89; 100 µg/mL in experiment [6]; 3.1 µg/mL in [7].
